Measurements as given in patent US10266497B2 (ABIDE THERAPEUTICS, INC., priority 2017, dated 2019).
pIC50: −log10 of the molar value. Where two headings read alike, the source gives them in different places.

Columns and labels:
[1] = target: T1, MAGL (Mus musculus, UniProt O35678); experiment: In vitro competitive activity-based protein profiling, MAGL, mouse; conditions: read-out: MAGL % inh. 1 μM (mouse)
T1 sequence (O35678 1-303): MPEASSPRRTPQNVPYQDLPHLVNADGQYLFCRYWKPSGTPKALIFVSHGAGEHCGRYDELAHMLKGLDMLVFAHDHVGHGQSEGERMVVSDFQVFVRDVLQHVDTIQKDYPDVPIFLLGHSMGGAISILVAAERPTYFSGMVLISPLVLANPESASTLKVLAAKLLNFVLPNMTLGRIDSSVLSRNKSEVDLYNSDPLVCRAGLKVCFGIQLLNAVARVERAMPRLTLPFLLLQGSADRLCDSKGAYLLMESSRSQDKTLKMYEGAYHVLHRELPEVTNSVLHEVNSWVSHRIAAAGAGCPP

[2] = target: T2, FAAH (Homo sapiens, UniProt O00519); experiment: In vitro competitive activity-based protein profiling, FAAH, human; conditions: for inhibition at 1 µM: read-out: FAAH % inh. 1 μM (human)
T2 sequence (O00519 1-579): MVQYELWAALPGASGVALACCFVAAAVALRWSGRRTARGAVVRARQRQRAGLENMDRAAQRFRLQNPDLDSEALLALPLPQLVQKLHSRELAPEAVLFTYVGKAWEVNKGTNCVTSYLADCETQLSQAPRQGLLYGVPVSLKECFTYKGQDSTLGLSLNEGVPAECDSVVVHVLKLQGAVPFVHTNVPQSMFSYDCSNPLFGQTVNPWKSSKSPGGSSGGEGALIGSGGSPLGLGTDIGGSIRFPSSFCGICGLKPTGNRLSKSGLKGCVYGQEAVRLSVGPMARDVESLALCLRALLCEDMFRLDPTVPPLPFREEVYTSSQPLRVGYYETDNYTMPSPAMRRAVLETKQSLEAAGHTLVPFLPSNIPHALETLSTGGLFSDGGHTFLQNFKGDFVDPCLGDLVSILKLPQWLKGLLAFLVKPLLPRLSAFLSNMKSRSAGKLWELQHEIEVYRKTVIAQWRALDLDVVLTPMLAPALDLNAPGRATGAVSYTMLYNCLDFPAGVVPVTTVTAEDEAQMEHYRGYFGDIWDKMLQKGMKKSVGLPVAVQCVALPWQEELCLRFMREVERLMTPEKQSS

[3] = target: T3, FAAH (Mus musculus, UniProt O08914); experiment: In vitro competitive activity-based protein profiling, FAAH, mouse; conditions: read-out: FAAH % inh. 1 μM (mouse)
T3 sequence (O08914 1-579): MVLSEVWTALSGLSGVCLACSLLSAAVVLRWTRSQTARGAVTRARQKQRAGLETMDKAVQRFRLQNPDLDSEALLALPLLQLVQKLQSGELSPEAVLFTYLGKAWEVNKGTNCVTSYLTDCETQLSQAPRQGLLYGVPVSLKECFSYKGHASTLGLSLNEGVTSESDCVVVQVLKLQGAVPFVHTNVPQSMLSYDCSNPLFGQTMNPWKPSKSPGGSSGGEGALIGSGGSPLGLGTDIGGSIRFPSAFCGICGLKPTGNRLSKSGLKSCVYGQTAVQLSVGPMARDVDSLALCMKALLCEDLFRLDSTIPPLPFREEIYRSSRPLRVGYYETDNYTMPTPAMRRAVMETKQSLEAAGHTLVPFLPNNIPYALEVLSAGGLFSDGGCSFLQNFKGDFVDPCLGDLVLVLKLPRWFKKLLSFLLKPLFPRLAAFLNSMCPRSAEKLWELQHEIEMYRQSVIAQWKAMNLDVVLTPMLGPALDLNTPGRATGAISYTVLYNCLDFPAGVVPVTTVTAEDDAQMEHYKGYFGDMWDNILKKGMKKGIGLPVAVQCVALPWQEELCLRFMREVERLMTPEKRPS

[4] = target: T1, MAGL; experiment: Mouse brain proteomes from inhibitor treated mice (oral gavage, sacrificed 4 h after administration); format: in vivo; parameters: mouse brain membrane fraction for mouse assays; from tissue; host or cells: mouse brain (membrane fraction in vitro; brain proteomes of treated C57Bl/6J mice in vivo); conditions: 5 mg/kg oral gavage, brain proteome 4 h after administration, read-out: MAGL % inh. 5 mg/kg (mouse)
[5] = target: T3, FAAH; experiment: Mouse brain proteomes from inhibitor treated mice (oral gavage, sacrificed 4 h after administration), FAAH; format: in vivo; parameters: mouse brain membrane fraction for mouse assays; from tissue; host or cells: mouse brain (membrane fraction in vitro; brain proteomes of treated C57Bl/6J mice in vivo); conditions: 5 mg/kg oral gavage, brain proteome 4 h after administration, read-out: FAAH % inh. 5 mg/kg (mouse)
[6] = target: T4, MAGL (Homo sapiens, UniProt Q99685); experiment: In vitro competitive activity-based protein profiling, MAGL, human; conditions: read-out: MAGL % inh. 1 μM (human)
T4 sequence (Q99685 1-303): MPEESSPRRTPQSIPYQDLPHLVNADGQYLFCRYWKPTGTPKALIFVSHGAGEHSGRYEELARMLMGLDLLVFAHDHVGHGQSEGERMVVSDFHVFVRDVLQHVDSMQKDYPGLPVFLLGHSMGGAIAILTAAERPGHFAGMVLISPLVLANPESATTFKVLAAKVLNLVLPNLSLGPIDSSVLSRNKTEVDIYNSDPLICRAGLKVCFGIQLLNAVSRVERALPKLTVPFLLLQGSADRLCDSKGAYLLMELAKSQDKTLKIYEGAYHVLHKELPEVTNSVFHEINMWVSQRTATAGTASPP

Row | Compound | inhibition at 1 µM [1] [%] | pIC50 [2] | inhibition at 1 µM [3] [%] | inhibition at 5 mg/kg [4] [%] | inhibition at 5 mg/kg [5] [%] | inhibition at 1 µM [6] [%] | inhibition at 1 µM [2] [%] | inhibition at 5 mg/kg ([4]; C57Bl/6J mice) [%]
1 | O=C(O)c1ccn(C(=O)N2CCN(Cc3ccc(C(F)(F)F)cc3N3CCOCC3)CC2)n1 [Example 3, 1-(4-(2-Morpholino-4-(trifluoromethyl)benzyl)piperazine-1-carbonyl)-1H-pyrazole-3-carboxylic Acid] | > 75 | 5.00 to 6.00 | 0 to 25 | 0 to 25 | 0 to 25 | – | – | –
2 | CN(Cc1ccc(C(F)(F)F)cc1N1CCOCC1)C1(C)CCN(C(=O)n2ccc(C(=O)O)n2)CC1 [Example 4, 1-(4-Methyl-4-(methyl(2-morpholino-4-(trifluoromethyl)benzyl)amino)piperidine-1-carbonyl)-1H-pyrazole-3-carboxylic Acid] | > 75 | – | 0 to 25 | 0 to 25 | 0 to 25 | > 75 | 0 to 25 | –
3 | O=C(O)c1ccn(C(=O)N2CCN(Cc3ccc(C(F)(F)F)cc3N3CCN(C4CC4)CC3)CC2)n1 [Example 6, 1-(4-(2-(4-Cyclopropylpiperazin-1-yl)-4-(trifluoromethyl)benzyl)piperazine-1-carbonyl)-1H-pyrazole-3-carboxylic Acid] | > 75 | – | 0 to 25 | 0 to 25 | 0 to 25 | > 75 | 0 to 25 | –
4 | O=C(O)c1ccn(C(=O)N2CCN(Cc3ccc(C(F)(F)F)c(N4CCCC4)c3)CC2)n1 [Example 7, 1-(4-(3-(Pyrrolidin-1-yl)-4-(trifluoromethyl)benzyl)piperazine-1-carbonyl)-1H-pyrazole-3-carboxylic Acid] | > 75 | – | 0 to 25 | 0 to 25 | 0 to 25 | > 75 | 0 to 25 | –
5 | O=C(O)c1ccn(C(=O)N2CCN(Cc3ccc(C(F)(F)F)c(-c4nccs4)c3)CC2)n1 [Example 8, 1-(4-(3-(Thiazol-2-yl)-4-(trifluoromethyl)benzyl)piperazine-1-carbonyl)-1H-pyrazole-3-carboxylic Acid] | > 75 | – | 0 to 25 | 0 to 25 | 0 to 25 | > 75 | 0 to 25 | –
6 | CN(Cc1ccc(C(F)(F)F)cc1-c1nccs1)C1(C)CCN(C(=O)n2ccc(C(=O)O)n2)CC1 [Example 10, 1-(4-methyl-4-(methyl(2-(thiazol-2-yl)-4-(trifluoromethyl)benzyl)amino)piperidine-1-carbonyl)-1H-pyrazole-3-carboxylic Acid] | > 75 | – | 0 to 25 | 0 to 25 | 0 to 25 | > 75 | 0 to 25 | –
7 | O=C(O)c1nn(C(=O)N2CCC3(CCN(Cc4cc(Cl)cc(C(F)(F)F)c4)C3)CC2)cc1Cl [Example 388, 4-chloro-1-(2-(3-chloro-5-(trifluoromethyl)benzyl)-2,8-diazaspiro[4.5]decane-8-carbonyl)-1H-pyrazole-3-carboxylic acid] | > 75 | – | – | 0 to 25 | – | > 75 | – | –
8 | C[C@@H]1CN(Cc2ccc(C(F)(F)F)cc2N2C3CCC2COC3)CCN1C(=O)n1ccc(C(=O)O)n1 [Example 393, 1-((2R)-4-(2-(3-oxa-8-azabicyclo[3.2.1]octan-8-yl)-4-(trifluoromethyl)benzyl)-2-methylpiperazine-1-carbonyl)-1H-pyrazole-3-carboxylic acid] | > 75 | – | – | 0 to 25 | – | > 75 | – | –
9 | C[C@H]1CN(Cc2ccc(C(F)(F)F)cc2N2C3CCC2COC3)CCN1C(=O)n1ccc(C(=O)O)n1 [Example 395, 1-((2S)-4-(2-(3-oxa-8-azabicyclo[3.2.1]octan-8-yl)-4-(trifluoromethyl)benzyl)-2-methylpiperazine-1-carbonyl)-1H-pyrazole-3-carboxylic acid] | > 75 | – | – | – | – | > 75 | – | 0 to 25
10 | CN(Cc1ccc(C(F)(F)F)cc1N1CCCCC1)C1(C)CCN(C(=O)n2ccc(C(=O)O)n2)CC1 [Example 397, 1-(4-methyl-4-(methyl(2-(piperidin-1-yl)-4-(trifluoromethyl)benzyl)amino)piper-idine-1-carbonyl)-1H-pyrazole-3-carboxylic acid] | > 75 | – | – | – | – | > 75 | – | 0 to 25
11 | O=C(O)c1ccn(C(=O)N2CCC3(CCCN3C(=O)c3ccc(C(F)(F)F)cc3N3CCCC3)CC2)n1 [Example 403, 1-(1-(2-(pyrrolidin-1-yl)-4-(trifluoromethyl)benzoyl)-1,8-diazaspiro[4.5]decane-8-carbonyl)-1H-pyrazole-3-carboxylic acid] | > 75 | – | – | – | – | > 75 | – | 0 to 25
12 | O=C(O)c1ccn(C(=O)N2CCC3(CCCN3Cc3ccc(C(F)(F)F)cc3N3CCCCC3)CC2)n1 [Example 404, 1-(1-(2-(piperidin-1-yl)-4-(trifluoromethyl)benzyl)-1,8-diazaspiro[4.5]decane-8-carbonyl)-1H-pyrazole-3-carboxylic acid] | > 75 | – | – | – | – | > 75 | – | 0 to 25
13 | O=C(O)c1ccn(C(=O)N2CCC3(CCCN3Cc3ccc(C(F)(F)F)cc3N3CCC(F)CC3)CC2)n1 [Example 413, 1-(1-(2-(4-fluoropiperidin-1-yl)-4-(trifluoromethyl)benzyl)-1,8-diazaspiro[4.5]decane-8-carbonyl)-1H-pyrazole-3-carboxylic acid] | > 75 | – | – | – | – | > 75 | – | 0 to 25
14 | CC(C)(O)COc1cccc(O[C@H]2C[C@@H]3CN(C(=O)n4ccc(C(=O)O)n4)C[C@@H]3C2)c1Cl [Example 451, 1-(trans-5-(2-chloro-3-(2-hydroxy-2-methylpropoxy)phenoxy)octahydro-cyclopenta[c]pyrrole-2-carbonyl)-1H-pyrazole-3-carboxylic acid] | > 75 | – | – | – | – | > 75 | – | 0 to 25
